Laboratory results published in patent US8202875B2, “Selective insecticides based on substituted cyclic ketoenols and safeners” (Bayer Cropscience AG, priority 2004, dated 2012).

Legend:
Type in all cases: in vivo
[1] = test system: cotton aphid (Aphis gossypii); assay: Aphis gossypii test, spray application on cotton plants; conditions: 100 ppm
From the text: (§1) The expected activity of a given combination of two active compounds can be calculated as follows (cf. Colby, S. R., “Calculating Synergistic and Antagonistic Responses of Herbicide Combinations”, Weeds 15, pages 20-22, 1967):
(§2) • X is the kill rate expressed in % of the untreated control when employing active compound A at an application rate of m ppm, • Y is the kill rate expressed in % of the untreated control when employing active compound B at an application rate of n ppm, • E is the kill rate expressed in % of the untreated control when using the active compounds A and B at application rates of m and n ppm,
(§3) If the actual insecticidal kill rate exceeds the calculated value, the kill of the combination is superadditive, i.e. a synergistic effect is present. In this case, the actually observed kill rate must exceed the value calculated using the above formula for the expected kill rate (E).
(§4) Adjuvant: rapeseed oil methyl ester (0.1% of a.i./l)
(§5) To prepare a suitable application solution, 1 part by weight of formulation is mixed with the appropriate amount of water and the adjuvant and the concentrate is diluted with water to the desired concentration. […]
(§6) After the desired period of time, the kill in % is determined. […] The determined kill rates are entered in Colby's formula.

[2] = test system: grain aphid (Metopolophium dirhodum); assay: Metopolophium dirhodum test, spray application on barley plants
From the text: as §1, §2, §3, §4, §5, §6

[3] = test system: green peach aphid (Myzus persicae); assay: Myzus persicae test, spray application on bell pepper plants
From the text: as §1, §2, §3, §4
To prepare a suitable application solution, 1 part by weight of formulation is mixed with the appropriate amount of water and the adjuvant and the concentrate is diluted with water to the desired concentration.
Bell pepper plants (Capsicum sativum) which are heavily infested by the green peach aphid (Myzus persicae) are sprayed to runoff point with the desired concentration of the application solution.
After the desired period of time, the kill in % is determined. 100% means that all aphids have been killed; 0% means that none of the aphids have been killed. The determined kill rates are entered in Colby's formula.

[4] = test system: bird cherry-oat aphid (Rhopalosiphum padi); assay: Safener test after spraying: kill of aphids on barley (greenhouse); conditions: 100 g of a.i./ha, barley at 2-leaf stage, spray boom
Protocol: (§7) Method: Safener test after spraying
(§8) Solvent: 7 parts by weight of DMF
(§9) Emulsifier: 2 parts by weight of alkylaryl polyglycol ether
(§10) To produce a suitable preparation of active compound, 1 part by weight of active compound is mixed with the stated amounts of solvent and emulsifier, and the concentrate is diluted with tap water to the desired concentration. The desired amount of safener (in the case of mefenpyr-diethyl as WP 20) is mixed into the water used for dilution. Furthermore, 2 g of a.i./l of rapeseed oil methyl ester 500 EW are added. Leaves of winter barley at the 2-leaf stage which are infested by the bird cherry-oat aphid (Rhopalosiphum padi) are treated with the desired active compound and safener concentrations using a spray boom, the water application rate being […]. Per variant, the test is carried out at least twice. Evaluation is carried out after 7 d and/or 14 d by assessing the plant damage in % and the kill of the grain aphids in % compared to the untreated control. 100% damage means that the plant has died, and 0% means no damage. 100% effect on the grain aphids means that all aphids have been killed; 0% means that none of the aphids have been killed.
(§11) Results for greenhouse trials with safener after spraying against Rhopalosiphum padi on summer barley/winter barley

winter barley = assay: Safener test after spraying: plant damage to barley (greenhouse); conditions: 100 g of a.i./ha
Protocol: as §7, §8, §9, §10, §11

## C=CCN(CC=C)C(=O)C(Cl)Cl [Dichlormid a.i., 2,2-dichloro-N,N-di-2-propenyl-acetamide]
[1]
  Kill rate in % after 7 d, found: 0%
[2]; 100 ppm
  Kill rate in % after 7 d, found: 0%
[3]; 100 ppm
  Kill rate in % after 7 d, found: 0%

## Clc1cc(Cl)nc(-c2ccccc2)n1 [Fenclorim a.i., 4,6-dichloro-2-phenyl-pyrimidine]
[2]; 25 ppm
  Kill rate in % after 7 d, found: 0%
[3]; 50 ppm
  Kill rate in % after 7 d, found: 0%

## CC1(C)OC(c2ccco2)CN1C(=O)C(Cl)Cl (centres unmarked) [Furilazole a.i., 3-dichloroacetyl-5-(2-furanyl)-2,2-dimethyl-oxazolidine]
[3]; 50 ppm
  Kill rate in % after 7 d, found: 0%

## CCOC(=O)C1=NN(c2ccc(Cl)cc2Cl)C(C)(C(=O)OCC)C1 (centres unmarked) [mefenpyr-diethyl, diethyl 1-(2,4-dichloro-phenyl)-4,5-dihydro-5-methyl-1H-pyrazole-3,5-dicarboxylate]
[4]
  Kill (%) 7 d: 0%
Winter barley; 7 d
  Damage to new growth (%) 7 d: 0%
Winter barley; 7 d, 100% = plant has died
  Damage (%) 7 d: 0%
Winter barley; 14 d
  Damage to new growth (%) 14 d: 0%
Winter barley; 14 d, 100% = plant has died
  Damage (%) 14 d: 0%
